From patent US20110305637A1, “RADIOLABELLED PDE10 LIGANDS” (Janssen Pharmaceutica N.V., priority 2009, published 2011)
Values joined by “and” are separate entries in the source; they are usually repeats but may differ in a detail not shown here. Equal entries are not always repeated.

Experiment: Biodistribution study in male Wistar rats
Format: in vivo, rat
Method: (§1) The biodistribution study of [^18F]B-1 was carried out in male Wistar rats (body weight 250-350 g) at 2 min, 30 min and 60 min post injection (p.i.) (n=3/time point). Rats were injected with about 1.1 MBq of the tracer via tail vein under anesthesia (2.5% Isoflurane in O2 at 1 L/min flow rate) and sacrificed by decapitation at above specified time points. Blood and major organs were collected in tared tubes and weighed. The radioactivity in blood, organs and other body parts was measured using an automated gamma counter The distribution of radioactivity in different parts of the body at different time points p.i. of the tracer was calculated and expressed as percentage of injected dose (% ID), and as percentage of injected dose per gram tissue (% ID/g) for the selected organs. % ID is calculated as cpm in organ/total cpm recovered. For calculation of total radioactivity in blood, blood mass was assumed to be 7% of the body mass.
as §1, with “[^18F]B-2” for “[^18F]B-1”, “270-340” for “250-350”

[1] = 2 min p.i., % ID/g values normalized for the body weight
[2] = 2 min p.i., normalized for body weight
[3] = 30 min p.i., % ID/g values normalized for the body weight

Q: For `[18F]CCCn1cc(-c2ccncc2)c(-c2ccc(OCc3ccc4ccccc4n3)cc2)n1` [[^18F]B-1], which “% ID in Carcass” value (2 min p.i.) is on record?
A: The value was 27.70 ± 0.7 % ID.

Q: What about the “% ID in Cerebellum” value (2 min p.i.) of the same compound?
A: Its value is 0.096 ± 0.0 % ID.

Q: And the “% ID in Cerebrum total” value (2 min p.i.)?
A: The value was 0.4 % ID and 0.407 ± 0.1 % ID.

Q: What about the “% ID in Cortex” value (2 min p.i.) of the same compound?
A: Its value is 0.072 ± 0.01 % ID.

Q: What about the “% ID in Heart” value (2 min p.i.) of the same compound?
A: Its value is 0.87 ± 0.1 % ID.

Q: And the “% ID in Hippocampus” value (2 min p.i.)?
A: The value was 0.013 ± 0.00 % ID.

Q: What about the “% ID in Intestines” value (2 min p.i.) of the same compound?
A: Its value is 8.89 ± 0.5 % ID.

Q: And the “% ID in Kidneys” value (2 min p.i.)?
A: The value was 5.31 ± 0.7 % ID.

Q: And the “% ID in Liver” value (2 min p.i.)?
A: Its value is 48.20 ± 1.8 % ID.

Q: What about the “% ID in Lungs” value (2 min p.i.) of the same compound?
A: Its value is 2.79 ± 0.6 % ID.

Q: And the “% ID in Rest of cerebrum” value (2 min p.i.)?
A: The value was 0.307 ± 0.05 % ID.

Q: And the “% ID in Spleen + Pancreas” value (2 min p.i.)?
A: The value was 1.63 ± 0.1 % ID.

Q: And the “% ID in Stomach” value (2 min p.i.)?
A: The value was 1.74 ± 0.2 % ID.

Q: And the “% ID in Striatum” value (2 min p.i.)?
A: Its value is 0.015 % ID and 0.015 ± 0.00 % ID.

Q: And the “% ID in Urine” value (2 min p.i.)?
A: Its value is 0.09 ± 0.0 % ID.

Q: And the “% ID/g in Blood” value (2 min p.i.)?
A: Its value is 0.19 ± 0.02 % ID/g.

Q: What about the “% ID/g in Cerebellum” value (2 min p.i.) of the same compound?
A: The value was 0.39 ± 0.06 % ID/g.

Q: What about the “% ID/g in Cerebrum + Cerebellum” value (2 min p.i.) of the same compound?
A: The value was 0.33 ± 0.05 % ID/g.

Q: And the “% ID/g in Cerebrum total” value (2 min p.i.)?
A: The value was 0.31 ± 0.05 % ID/g.

Q: And the “% ID/g in Cortex” value (2 min p.i.)?
A: Its value is 0.40 ± 0.11 % ID/g.

Q: What about the “% ID/g in Heart” value (2 min p.i.) of the same compound?
A: Its value is 1.06 ± 0.20 % ID/g.

Q: What about the “% ID/g in Liver” value (2 min p.i.) of the same compound?
A: The value was 3.79 ± 0.19 % ID/g.

Q: What about the “% ID/g in Lungs” value (2 min p.i.) of the same compound?
A: The value was 2.36 ± 0.75 % ID/g.

Q: What about the “% ID/g in Rest of cerebrum” value (2 min p.i.) of the same compound?
A: Its value is 0.30 ± 0.04 % ID/g.

Q: And the “% ID/g in Spleen + Pancreas” value (2 min p.i.)?
A: The value was 1.18 ± 0.17 % ID/g.

Q: And the striatum/blood ratio [1]?
A: Its striatum/blood ratio is 2.1.

Q: What about the striatum/cortex ratio [1] of the same compound?
A: Its striatum/cortex ratio is 1.0.

Q: And the striatum/hippocampus ratio [1]?
A: Its striatum/hippocampus ratio is 2.0.

Q: And the “total brain uptake of the tracer” value (2 min p.i., % of injected dose)?
A: Its value is about 0.5%.

Q: What about the “% ID/g × kg in Blood” value [2] of the same compound?
A: Its value is 0.05 ± 0.00 % ID/g × kg.

Q: And the “% ID/g × kg in Cerebellum” value [2]?
A: The value was 0.100 ± 0.02 % ID/g × kg.

Q: What about the “% ID/g × kg in Cerebrum + Cerebellum” value [2] of the same compound?
A: Its value is 0.08 ± 0.01 % ID/g × kg.

Q: What about the “% ID/g × kg in Cerebrum total” value [2] of the same compound?
A: Its value is 0.080 ± 0.01 % ID/g × kg.

Q: And the “% ID/g × kg in Cortex” value [2]?
A: Its value is 0.103 ± 0.03 % ID/g × kg.

Q: And the “% ID/g × kg in Heart” value [2]?
A: The value was 0.27 ± 0.05 % ID/g × kg.

Q: And the “% ID/g × kg in Hippocampus” value [2]?
A: Its value is 0.052 ± 0.01 % ID/g × kg.

Q: And the “% ID/g × kg in Kidneys” value [2]?
A: Its value is 0.57 ± 0.07 % ID/g × kg.

Q: What about the “% ID/g × kg in Liver” value [2] of the same compound?
A: Its value is 0.97 ± 0.05 % ID/g × kg.

Q: And the “% ID/g × kg in Lungs” value [2]?
A: The value was 0.60 ± 0.19 % ID/g × kg.

Q: And the “% ID/g × kg in Rest of cerebrum” value [2]?
A: The value was 0.077 ± 0.01 % ID/g × kg.

Q: And the “% ID/g × kg in Spleen + Pancreas” value [2]?
A: Its value is 0.30 ± 0.04 % ID/g × kg.

Q: And the “% ID/g × kg in Striatum” value [2]?
A: The value was 0.102 ± 0.01 % ID/g × kg.

Q: What about the “% ID in Blood” value (30 min p.i.) of the same compound?
A: The value was 2.12 ± 0.1 % ID.

Q: And the “% ID in Carcass” value (30 min p.i.)?
A: Its value is 25.24 ± 1.7 % ID.

Q: What about the “% ID in Cerebellum” value (30 min p.i.) of the same compound?
A: The value was 0.021 ± 0.0 % ID.

Q: And the “% ID in Cerebrum total” value (30 min p.i.)?
A: Its value is 0.158 ± 0.01 % ID.

Q: And the “% ID in Cortex” value (30 min p.i.)?
A: Its value is 0.018 ± 0.00 % ID.

Q: What about the “% ID in Heart” value (30 min p.i.) of the same compound?
A: Its value is 0.22 ± 0.0 % ID.

Q: What about the “% ID in Hippocampus” value (30 min p.i.) of the same compound?
A: Its value is 0.004 ± 0.00 % ID.

Q: What about the “% ID in Intestines” value (30 min p.i.) of the same compound?
A: The value was 14.44 ± 3.0 % ID.

Q: And the “% ID in Kidneys” value (30 min p.i.)?
A: Its value is 1.55 ± 0.1 % ID.

Q: And the “% ID in Liver” value (30 min p.i.)?
A: Its value is 49.64 ± 5.3 % ID.

Q: And the “% ID in Lungs” value (30 min p.i.)?
A: Its value is 1.81 ± 0.0 % ID.

Q: And the “% ID in Rest of cerebrum” value (30 min p.i.)?
A: Its value is 0.122 ± 0.00 % ID.

Q: What about the “% ID in Spleen + Pancreas” value (30 min p.i.) of the same compound?
A: The value was 0.42 ± 0.1 % ID.

Q: And the “% ID in Stomach” value (30 min p.i.)?
A: The value was 4.60 ± 0.6 % ID.

Q: What about the “% ID in Striatum” value (30 min p.i.) of the same compound?
A: The value was 0.014 ± 0.00 % ID.

Q: What about the “% ID in Urine” value (30 min p.i.) of the same compound?
A: Its value is 0.61 ± 0.3 % ID.

Q: And the “% ID/g in Blood” value (30 min p.i.)?
A: The value was 0.12 ± 0.01 % ID/g.

Q: And the “% ID/g in Cerebellum” value (30 min p.i.)?
A: Its value is 0.09 ± 0.01 % ID/g.

Q: What about the “% ID/g in Cerebrum + Cerebellum” value (30 min p.i.) of the same compound?
A: The value was 0.12 ± 0.01 % ID/g.

Q: What about the “% ID/g in Cerebrum total” value (30 min p.i.) of the same compound?
A: The value was 0.12 ± 0.01 % ID/g.

Q: And the “% ID/g in Cortex” value (30 min p.i.)?
A: Its value is 0.11 ± 0.02 % ID/g.

Q: And the “% ID/g in Heart” value (30 min p.i.)?
A: Its value is 0.26 ± 0.02 % ID/g.

Q: What about the “% ID/g in Hippocampus” value (30 min p.i.) of the same compound?
A: Its value is 0.08 ± 0.01 % ID/g.

Q: And the “% ID/g in Kidneys” value (30 min p.i.)?
A: Its value is 0.64 ± 0.04 % ID/g.

Q: And the “% ID/g in Liver” value (30 min p.i.)?
A: The value was 4.00 ± 0.37 % ID/g.

Q: And the “% ID/g in Lungs” value (30 min p.i.)?
A: The value was 1.38 ± 0.11 % ID/g.

Q: And the “% ID/g in Rest of cerebrum” value (30 min p.i.)?
A: Its value is 0.12 ± 0.01 % ID/g.

Q: What about the “% ID/g in Spleen + Pancreas” value (30 min p.i.) of the same compound?
A: The value was 0.27 ± 0.01 % ID/g.

Q: And the “% ID/g in Striatum” value (30 min p.i.)?
A: The value was 0.41 ± 0.00 % ID/g.

Q: What about the striatum/blood ratio [3] of the same compound?
A: Its striatum/blood ratio is 3.5.

Q: What about the striatum/cerebellum ratio [3] of the same compound?
A: The striatum/cerebellum ratio was 4.6.

Q: And the striatum/cortex ratio [3]?
A: The striatum/cortex ratio was 3.9.

Q: What about the striatum/hippocampus ratio [3] of the same compound?
A: Its striatum/hippocampus ratio is 5.1.
